The results in this text go back to patent publication US8697692B2, “Pyrrolo [3,2-c] pyridine-4-one 2-indolinone protein kinase inhibitors” (Shanghai Hengrui Pharmaceutical Co., Ltd., priority 2006, dated 2014).

In this assay the test system is A431 cell. In words: Cell Proliferation Inhibition EGFR Assay (SRB method). It counts as cell-based, homo sapient. The note with it: Homo sapiens, A-431; A431 cells, 72 hours exposure, Sulforhodamine B; read-out: IC50 (A431). The method, boiled down:
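A431 cells grown to ~85% confluence, then exposed 72 hours at 37° C to 6 to 7 serial concentrations of compound in DMEM/F12 + 10% FBS, final DMSO ≤0.5%. Growth measured by TCA fixation and sulforhodamine B staining; IC50 calculated from inhibition rates.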

In the case of `CCN(CC)CCN1CCc2[nH]c(/C=C3\C(=O)Nc4cccc(Br)c43)c(C)c2C1=O` [Example 30, 2-(4-Bromo-2-oxo-1,2-dihydro-indol-3-ylidenemethyl)-5-(2-diethylamino-ethyl)-3-methyl-1,5,6,7-tetrahydro-pyrrolo[3,2-c]pyridin-4-one], the 50% inhibitory concentration (IC50) was 0.33 µM.

As to `CCN(CC)CCN1CCc2[nH]c(/C=C3\C(=O)Nc4ccc(OC)cc43)c(C)c2C1=O` [Example 35, 5-(2-Diethylamino-ethyl)-2-(5-methoxy-2-oxo-1,2-dihydro-indol-3-ylidenemethyl)-3-methyl-1,5,6,7-tetrahydro-pyrrolo[3,2-c]pyridin-4-one], the IC50 stood at 4.35 µM.

Turning to `CCN(CC)CCN1CCc2[nH]c(/C=C3\C(=O)Nc4cccc(C5CCNCC5)c43)c(C)c2C1=O` [Example 31, 5-(2-Diethylamino-ethyl)-3-methyl-2-(2-oxo-4-piperidin-4-yl-1,2-dihydro-indol-3-ylidenemethyl)-1,5,6,7-tetrahydro-pyrrolo[3,2-c]pyridin-4-one], the 50% inhibitory concentration (IC50) was found to be 0.35 µM.

In the case of `Cc1c(/C=C2\C(=O)Nc3cccc(C4CCNCC4)c32)[nH]c2c1C(=O)N(CCN1CCOCC1)CC2` [Example 52, 3-Methyl-5-(2-morpholin-4-yl-ethyl)-2-(2-oxo-4-piperidin-4-yl-1,2-dihydro-indol-3-ylidenemethyl)-1,5,6,7-tetrahydro-pyrrolo[3,2-c]pyridin-4-one], the half-inhibitory concentration (IC50) was found to be 1.9 µM.

`CCN(CC)CCN1CCc2[nH]c(/C=C3\C(=O)Nc4cccc(-c5cccc(Cl)c5F)c43)c(C)c2C1=O` [Example 36, 2-[4-(3-Chloro-2-fluoro-phenyl)-2-oxo-1,2-dihydro-indol-3-ylidenemethyl]-5-(2-diethylamino-ethyl)-3-methyl-1,5,6,7-tetrahydro-pyrrolo[3,2-c]pyridin-4-one]: the IC50 is 7.32 µM.

As for `CCN(CC)CCN1CCc2[nH]c(/C=C3\C(=O)Nc4cccc(CCO)c43)c(C)c2C1=O` [Example 37, 5-(2-Diethylamino-ethyl)-2-[4-(2-hydroxy-ethyl)-2-oxo-1,2-dihydro-indol-3-ylidenemethyl]-3-methyl-1,5,6,7-tetrahydro-pyrrolo[3,2-c]pyridin-4-one], the half-maximal inhibitory concentration (IC50) came out at 3.85 µM.

Regarding `Cc1c(/C=C2\C(=O)Nc3ccc(Cl)cc32)[nH]c2c1C(=O)N(CCN1CCOCC1)CC2` [Example 16, 2-(5-Chloro-2-oxo-1,2-dihydro-indol-3-ylidenemethyl)-3-methyl-5-(2-morpholin-4-yl-ethyl)-1,5,6,7-tetrahydro-pyrrolo[3,2-c]pyridin-4-one], the IC50 came to 10.2 µM.

Turning to `Cc1c(/C=C2\C(=O)Nc3cccc(-c4cccc(F)c4F)c32)[nH]c2c1C(=O)N(CCN1CCCC1)CC2` [Example 59, 2-[4-(2,3-Difluoro-phenyl)-2-oxo-1,2-dihydro-indol-3-ylidenemethyl]-3-methyl-5-(2-pyrrolidin-1-yl-ethyl)-1,5,6,7-tetrahydro-pyrrolo[3,2-c]pyridin-4-one], the IC50 was 2.19 µM.

With `Cc1c(/C=C2\C(=O)Nc3cccc(CCO)c32)[nH]c2c1C(=O)N(CCN1CCOCC1)CC2` [Example 42, 2-[4-(2-Hydroxy-ethyl)-2-oxo-1,2-dihydro-indol-3-ylidenemethyl]-3-methyl-5-(2-morpholin-4-yl-ethyl)-1,5,6,7-tetrahydro-pyrrolo[3,2-c]pyridin-4-one], the concentration for half-maximal inhibition (IC50) is 16.5 µM.

On to `CCN(CC)CCN1CCc2[nH]c(/C=C3\C(=O)Nc4cccc(-c5ccc(Cl)cc5F)c43)c(C)c2C1=O` [Example 34, 2-[4-(4-Chloro-2-fluoro-phenyl)-2-oxo-1,2-dihydro-indol-3-ylidenemethyl]-5-(2-diethylamino-ethyl)-3-methyl-1,5,6,7-tetrahydro-pyrrolo[3,2-c]pyridin-4-one], for which the IC50 was 3.23 µM.

For `Cc1c(/C=C2\C(=O)Nc3ncnc(Nc4ccc(F)c(Cl)c4)c32)[nH]c2c1C(=O)N(CCN1CCOCC1)CC2` [Example 24, 4-(3-Chloro-4-fluoro-phenylamino)-5-[3-methyl-5-(2-morpholin-4-yl-ethyl)-4-oxo-4,5,6,7-tetrahydro-1H-pyrrolo[3,2-c]pyridine-2-ylmethylenene]-5,7-dihydro-pyrrolo[2,3-d]pyrimidin-6-one], the half-inhibitory concentration (IC50) was 0.33 µM.

Turning to `CCN(CC)CCN1CCc2[nH]c(/C=C3\C(=O)Nc4cccc(-c5cccc(F)c5F)c43)c(C)c2C1=O` [Example 39, 5-(2-diethylamino-ethyl)-2-[4-(2,3-difluoro-phenyl)-2-oxo-1,2-dihydro-indol-3-ylidenemethyl]-3-methyl-1,5,6,7-tetrahydro-pyrrolo[3,2-c]pyridin-4-one], the concentration for half-maximal inhibition (IC50) was 0.38 µM.

With `CCN(CC)CCN1CCc2[nH]c(/C=C3\C(=O)Nc4ncnc(Nc5ccc(F)c(Cl)c5)c43)c(C)c2C1=O` [Example 12, 4-(3-Chlor O-4-fluoro-phenylamino)-5-[5-(2-diethylamino-ethyl)-3-methyl-4-oxo-4,5,6,7-tetrahydro-1H-pyrrolo[3,2-c]pyridine-2-ylmethylene]-5,7-dihydro-pyrrolo[2,3-d]pyrimidin-6-one], the IC50 amounted to 0.067 µM.

`Cc1c(/C=C2\C(=O)Nc3ncc(Br)cc32)[nH]c2c1C(=O)N(CCN1CCOCC1)CC2` [Example 50, 2-(5-Bromo-2-oxo-1,2-dihydro-pyrrolo[2,3-b]pyridin-3-ylidenemethyl)-3-methyl-5-(2-morpholin-4-yl-ethyl)-1,5,6,7-tetrahydro-pyrrolo[3,2-c]pyridin-4-one]: the IC50 came to 15.9 µM.
